Laboratory results as given in paper PMC12085399, “Quantitative in vitro-to-in vivo extrapolation of human adrenergic and trace amine-associated receptor 1 potencies of pre-workout supplement ingredients using physiologically based kinetic modelling-based reverse dosimetry” (Archives of Toxicology, 2025).
Several values for one entry are separate records, joined by “and”; a condition that tells them apart may be missing. Identical values can stand only once.

Legend:
in vitro = settings: human; for Papp B→A at 60 min, 10 µM / efflux ratio at 60 min, 10 µM: Caco-2, pH 7.4; for recovery at 60 min, 10 µM: after 60 min, mean ± SD
Description: (§1) Caco-2 cells (ATCC, Manassas, VA, USA; passage 30–44) were cultured in DMEM (Gibco, New York, USA) containing 4.5 g/L d-glucose, 4 mM L-glutamine and supplemented with 10% FBS (Gibco, Grand Island, NY, USA), 1% minimal essential medium non-essential amino acids (Gibco, Paisley, UK), 100 units/mL penicillin and 100 µg/mL streptomycin (Gibco, Grand Island, NY, USA). Cells were seeded at a density of 4.0 × 10^4 cells/cm^2 on polyester transwell insert membranes (12 mm insert, 0.4 µm pore size; Corning incorporated, Kennebunk, ME, USA). Cells were maintained in a humidified incubator with 5% CO2 at 37 °C for 21 or 22 days in 0.5 mL and 1.5 mL medium in the apical and basolateral compartments, respectively. The medium was refreshed every two or three days and always one day before the permeability assay.
(§2) On the day of the experiment, cells were washed twice with HBSS without phenol red (pH 7.4; Sigma-Aldrich, Steinheim, Germany) supplemented with 0.35 g/L sodium bicarbonate and 25 mM HEPES and they were equilibrated in this supplemented HBSS for 15 min in a humidified incubator with 5% CO2 at 37 °C. […] These stocks were diluted to a final concentration of 10 µM in pre-warmed supplemented HBSS (final DMSO level = 0.1%). After 15 min, the transepithelial electrical resistance (TEER) was measured with an Epithelial Voltohmmeter (World Precision Instruments, Sarasota, USA). Compound transport was studied in two directions: from the apical to the basolateral compartment (A-B) and from the basolateral to the apical compartment (B-A). For A-B experiments, 450 µL of the compound (10 µM) was added to the apical side and 1200 µL supplemented HBSS was added to the basolateral side. A sample of 50 µL was removed immediately from the apical compartment at time point zero. After 15 and 30 min, samples were taken from the basolateral compartment. Cells were kept in the incubator during the experiment. After 60 min, medium from both compartments was sampled, cells were washed twice with supplemented HBSS and were maintained in the incubator. After 15 min, the TEER was measured again to check for epithelial barrier damage due to compound exposure. After this, cells were lysed in RIPA buffer (Thermo Scientific, Rockford, IL, USA). For B-A experiments, 400 µL of supplemented HBSS was added to the apical side and 1250 µL of the compound (10 µM) was added to the basolateral side. A sample of 50 µL was removed immediately from the basolateral compartment at time point zero. After 15 and 30 min, samples were taken from the apical compartment. After 60 min, samples were taken similarly as in A-B experiments. The sampled medium and cell lysates were stored at −20 °C till the day of the liquid chromatography–mass spectrometry (LC–MS/MS) analysis. All experiments were run in duplicate. The compounds were quantified with LC–MS/MS as described in Sect. "LC–MS/MS analysis".
(§3) Before chemical analysis, cell lysates were two times diluted in ice-cold methanol and centrifuged at 15,000 rpm at 4 °C. The supernatant was then injected into the LC–MS/MS system. Sampled buffer from donor compartments was diluted 40 times in buffer and samples from the receiver compartment were analysed undiluted. Standards were prepared in the same assay buffer to quantify the amount of compound in medium samples. For quantification of compounds in cell lysates, standards were prepared in a mixture of 50% RIPA buffer and 50% methanol.
(§4) All data are presented as mean ± SD.
(§5) For the < Tsi > a value of 3.32 h was used (Grandoni et al. [2019]).

Caco-2 cells = experiment: in vitro; settings: for fa (fraction absorbed) / ka (absorption rate constant): scaled from corrected Caco-2 Papp A-B, human
Description: as §1, §2, §3, §4, §5

ADRα1A = experiment: PBK modelling-based reverse dosimetry of in vitro EC50 to ED50, ADRα1A; settings: predicted human oral ED50 from in vitro EC50 (Pinckaers et al. [2024]) and modelled Cmax plasma venous
Excerpt: (§6) The in vitro effect concentrations (EC50), for activation of the α1A, α1B, α1D, α2A, α2B, β1 and β2 ADR activation and the activation of TAAR1, were obtained from our previous study (Pinckaers et al. [2024]).

ADRα1B = experiment: PBK modelling-based reverse dosimetry of in vitro EC50 to ED50, ADRα1B; settings: predicted human oral ED50 from in vitro EC50 (Pinckaers et al. [2024]) and modelled Cmax plasma venous
Excerpt: as §6

ADRα1D = experiment: PBK modelling-based reverse dosimetry of in vitro EC50 to ED50, ADRα1D; settings: predicted human oral ED50 from in vitro EC50 (Pinckaers et al. [2024]) and modelled Cmax plasma venous
Excerpt: as §6

ADRα2A = experiment: PBK modelling-based reverse dosimetry of in vitro EC50 to ED50, ADRα2A; settings: predicted human oral ED50 from in vitro EC50 (Pinckaers et al. [2024]) and modelled Cmax plasma venous
Excerpt: as §6

ADRβ1 = experiment: PBK modelling-based reverse dosimetry of in vitro EC50 to ED50, ADRβ1; parameters: species or system human; settings: for ADRβ1 ED50: predicted human oral ED50 from in vitro EC50 (Pinckaers et al. [2024]) and modelled Cmax plasma venous
ADRβ2 = experiment: PBK modelling-based reverse dosimetry of in vitro EC50 to ED50, ADRβ2; settings: predicted human oral ED50 from in vitro EC50 (Pinckaers et al. [2024]) and modelled Cmax plasma venous
Excerpt: as §6

TAAR1 = experiment: PBK modelling-based reverse dosimetry of in vitro EC50 to ED50, TAAR1; parameters: species or system human; settings: for TAAR1 ED50: predicted human oral ED50 from in vitro EC50 (Pinckaers et al. [2024]) and modelled Cmax plasma venous; for dose needed to reach internal effect concentrations, times lower than the dose of higenamine: TAAR1, Fig. 6F
Excerpt: as §6

[1] = Caco-2, pH 7.4, Papp A-B corrected, corrected for the difference between Papp A-B of metoprolol in this study and in literature
[2] = Caco-2, pH 7.4, Papp A-B, Caco-2, apical to basolateral, 10 µM, HBSS pH 7.4, mean ± SD, duplicate
[3] = Caco-2, pH 7.4, Recovery (A-B), Caco-2, A-B experiments
[4] = Caco-2, pH 7.4, Recovery (B-A), Caco-2, B-A experiments

Row | SMILES | Papp B→A at 60 min, 10 µM (in vitro) | efflux ratio at 60 min, 10 µM (in vitro) | Papp A→B at 60 min, 10 µM (in vitro; [1]) | Papp A→B at 60 min, 10 µM (in vitro; [2]) | recovery at 60 min, 10 µM (in vitro; [3]) | recovery at 60 min, 10 µM (in vitro; [4]) | metabolic breakdown by Caco-2 cells (Caco-2 cells; Caco-2 transport studies, 10 µM) | fa (fraction absorbed) (Caco-2 cells) | ka (absorption rate constant) (Caco-2 cells) | ADRα1A ED50 (ADRα1A) | ADRα1B ED50 (ADRα1B) | ADRα1D ED50 (ADRα1D) | ADRα2A ED50 (ADRα2A) | ADRβ1 ED50 (ADRβ1) | ADRβ2 ED50 (ADRβ2) | TAAR1 ED50 (TAAR1) | dose needed to reach internal effect concentrations, times lower than the dose of higenamine (TAAR1) | predicted equivalent oral dose, times lower than the dose of higenamine (ADRβ1; ADRβ1, dose needed to reach the internal effect concentration)
1 | NCCc1ccccc1 [Phenethylamine, phenethylamine] | 1.95 ± 1.04 ×10⁻⁶ cm/s | 0.677 | 10.5 ×10⁻⁶ cm/s | 2.88 ± 0.22 ×10⁻⁶ cm/s | 15.7 ± 1.51% | 103 ± 3.36% | metabolized by Caco-2 cells | 1.00 | 1.64 h⁻¹ | – (compounds with a dash (-) did not activate the receptors in vitro at concentrations ≤ 300 µM) | – (compounds with a dash (-) did not activate the receptors in vitro at concentrations ≤ 300 µM) | – (compounds with a dash (-) did not activate the receptors in vitro at concentrations ≤ 300 µM) | – (compounds with a dash (-) did not activate the receptors in vitro at concentrations ≤ 300 µM) | – (compounds with a dash (-) did not activate the receptors in vitro at concentrations ≤ 300 µM) | – (compounds with a dash (-) did not activate the receptors in vitro at concentrations ≤ 300 µM) | 67.7 mg/kg bw |  | 
2 | CNC(C)C(O)c1ccc(O)cc1 (centres unmarked) [Methylsynephrine] | 0.39 ± 0.202 ×10⁻⁶ cm/s | 1.1 | 1.3 ×10⁻⁶ cm/s | 0.353 ± 0.215 ×10⁻⁶ cm/s | 114 ± 8.39% | 102 ± 11.7% |  | 0.971 | 0.563 h⁻¹ | 29.7 mg/kg bw | – (compounds with a dash (-) did not activate the receptors in vitro at concentrations ≤ 300 µM) | – (compounds with a dash (-) did not activate the receptors in vitro at concentrations ≤ 300 µM) | – (compounds with a dash (-) did not activate the receptors in vitro at concentrations ≤ 300 µM) | 16.9 mg/kg bw | – (compounds with a dash (-) did not activate the receptors in vitro at concentrations ≤ 300 µM) | – (compounds with a dash (-) did not activate the receptors in vitro at concentrations ≤ 300 µM) |  | 
3 | CC(CN)c1ccccc1 (stereo not drawn) [β-Methylphenethylamine, β-methylphenethylamine] | 12.1 ± 2.02 ×10⁻⁶ cm/s | 0.766 | 57.6 ×10⁻⁶ cm/s | 15.8 ± 1.47 ×10⁻⁶ cm/s | 80.9 ± 3.27% | 89.3 ± 4.46% |  | 1.00 | 3.79 h⁻¹ | – (compounds with a dash (-) did not activate the receptors in vitro at concentrations ≤ 300 µM) | – (compounds with a dash (-) did not activate the receptors in vitro at concentrations ≤ 300 µM) | – (compounds with a dash (-) did not activate the receptors in vitro at concentrations ≤ 300 µM) | – (compounds with a dash (-) did not activate the receptors in vitro at concentrations ≤ 300 µM) | – (compounds with a dash (-) did not activate the receptors in vitro at concentrations ≤ 300 µM) | – (compounds with a dash (-) did not activate the receptors in vitro at concentrations ≤ 300 µM) | 0.995 mg/kg bw and 0.955 mg/kg bw | 6.4 times | 
4 | CC(C)NCC(O)c1ccc(O)cc1 (centres unmarked) [Isopropyloctopamine, isopropyloctopamine] | 0.652 ± 0.0444 ×10⁻⁶ cm/s |  | 2.56 ×10⁻⁶ cm/s | 0.703 ± 0.041 ×10⁻⁶ cm/s | 79.8 ± 2.19% | 76.5 ± 1.27% |  | 0.994 | 0.818 h⁻¹ | – (compounds with a dash (-) did not activate the receptors in vitro at concentrations ≤ 300 µM) | – (compounds with a dash (-) did not activate the receptors in vitro at concentrations ≤ 300 µM) | – (compounds with a dash (-) did not activate the receptors in vitro at concentrations ≤ 300 µM) | – (compounds with a dash (-) did not activate the receptors in vitro at concentrations ≤ 300 µM) |  | – (compounds with a dash (-) did not activate the receptors in vitro at concentrations ≤ 300 µM) | 1.26 mg/kg bw | 4.8 times | 2.5 times
